Measurements from patent US20070202203A1, “ANTI-AGEING COMPOSITION” (L'OREAL, priority 2006, published 2007).

Tested on: dermal equivalent consisting of a collagen matrix seeded with normal human fibroblasts
Test: Dermodecontracting effect: spontaneous contraction of dermal equivalent
Format: cell-based
Conditions: surface area after 24 h of contraction; control = 100; manganese gluconate 0.0005%, adenosine 0.004%
Description: These conditions are intended to mimic in vitro, the dermal contractile phenomena that occur during dermal tensing of the face, for example during facial expressions. Under these conditions, in fact, the cells spontaneously express tensile forces that induce retraction of the collagen gel. […] The measurement of this surface area makes it possible to evalue the relaxing or dermocontracting effects of the substances previously brought into contact with the dermal equivalent. […] The experiment is repeated three times. The dermal equivalents are prepared as described in Asselineau et al., Exp. Cell. Res., 1985, 159, 536-539; Models in dermatology, 1987, vol 3 pp 1-7, in the following proportions: The collagen used is collagen type I (commercial solution), but collagen type III or IV can also be used. It is extracted from rat tails or from calf skin by acid hydrolysis and conserved in an acidic medium at […]; it polymerizes naturally by heating to 37° C. and by decreasing the degree of acidity. The collagen is dialysed beforehand against successive baths of water +acetic acid. […] For this, a digital image is acquired for each treated or nontreated dermal equivalent by means of a camera (CCD camera—Iris Sony DXC—107P) and the surface area is then calculated on each image by means of an image analysis system (Zeiss Axiovision 3.0). […]

Row | Compound | % contraction
1 | Nc1ncnc2c1ncn2[C@@H]1O[C@H](CO)[C@@H](O)[C@H]1O [Adenosine, adenosine] | 82%
2 | manganese gluconate | 89%
